This is an account of results in patent US20220290196A1, “GENETICALLY ENGINEERED MICROBES AND BIOSYNTHETIC METHODS” (The Regents of the University of California, priority 2019, published 2022).

“And” between values parts separate entries of the source, which are not always exact repeats. Equal values may be shown once. Read-outs that look alike come from different tables or passages of the source.

Data set [1] has as its system Tar14. Put plainly: Tar14 in vitro halogenation assay with substrate analogues. The data set is classed as biochemical, Saccharomonospora sp. CNQ-490. On the procedure: Tar14. Tar14 reaction mixture of total volume 100 μL in 1.5 mL Eppendorf tube was composed of the following components:
Buffer (10 mM Tris, 10% glycerol, pH 7.6): up to 100 μL

For data set [2], the system named is Tar13. Put plainly: Tar13 in vitro assay with substrate analogues. The data set is classed as biochemical, Saccharomonospora sp. CNQ-490. On the procedure:
Tar13. Upon testing different reaction compositions (buffers, concentration of ascorbic acids and hemin, pH), the following conditions were found as optimal:
Buffer: up to 50 μL (50 mM Tris, 500 mM NaCl 10% glycerol, pH 8.0)
(§1) In a separate Eppendorf tube premix:
Add substrate solution to the enzyme mixture to start reaction
When Tar13 was directly added to the enzyme reaction, immediate protein precipitation occurred. The same was observed if the enzyme was not pre-mixed with hemin and ascorbic acid. Full substrate conversion was achieved after overnight incubation at 30° C. in 1.5 mL Eppendorf tube with shaking. The reactions were quenched by addition of equal volume of HPLC grade methanol.

In data set [3] the test system is Tar16. Briefly: Coupled Tar13/Tar16 assay (Tar16 substrate generated in situ by Tar13). As to conditions: substrates generated in situ by Tar13; Tar16 10 μM; overnight at 30° C. The data set is classed as biochemical, Saccharomonospora sp. CNQ-490. Here is the method:
Coupled Tar13 Tar]6. The reaction mixture of total volume 100 μL in 1.5 mL Eppendorf tube was composed of the following components:
Buffer: up to 50 μL (50 mM Tris, 500 mM NaCl 10% glycerol, pH 8.0
Substrate (for Tar13 enzyme): 0.25 μM
as §1
Buffer: up to […] (50 mM Tris, 500 mM NaCl 10% glycerol, pH 8.0)
Add substrate solution to the enzyme mixture to start reaction.
No difference in conversion was observed when Tar16 was added into the assay mixture either together with Tar13, or after 2 h of incubation at 30° C., or after overnight incubation at 30° C., followed by another 4 h of incubation after addition of Tar16. Therefore, for convenience, all components were mixed at the same time point, the reactions were incubated at 30° C. overnight, after which the assays were quenched by addition of equal volume of HPLC grade methanol.

For data set [4], the system named is S. coelicolor M1146-tarM1Δtar14. Put plainly: Feeding/chemical complementation experiment, incorporation into taromycin. The data set is classed as cell-based, Streptomyces coelicolor. Particulars: incorporation at residue-1 and residue-13; analogue fed at 2 mM; judged by comparison to taromycin yields by S. coelicolor M1146-tarM1. On the procedure:
For taromycin production, seed culture in TSBY medium was inoculated with corresponding S. coelicolor spore suspension (collected from fresh SFM plates) and was cultured for 36-48 h till a dense creamy consistency was reached. Kanamycin at 10 μg mL^−1 final concentration was added to the seed cultures of S. coelicolor M1146-pCAP01-tarM1 and S. coelicolor M1146-pCAP01-tarM1Δtar14. Inocula of seed culture (5%, v/v) were used for fermentation in MP medium (1% glucose, 1% soluble starch, 0.4% peptone, 0.3% yeast extract, 0.3% soytone, 0.2% meat extract, 0.2% CaCO3, and 0.5% NaCl, pH 7.2). Fermentation was carried out at 30° C. and 220 rpm in a rotary incubator for 6 days. A maximum of 40 mL of production medium was added into 250 mL flask with metal springs.
S. coelicolor M1146-pCAP01-tarM1Δtar14 cultures were grown as described in Section 3 for taromycin production. After 18 and 36 h of cultivation, tryptophan analogues in the form of water suspension were added to the production cultures to a final concentration 2 mM. The cultures were further incubated for 5 days before extraction and further analysis by LC-HRMS^n. All experiments were repeated independently twice with three replicates for each compound. In parallel, cultures of S. coelicolor M1146-pCAP01-tarM1 and S. coelicolor M1146-pCAP01-tarM1Δtar14 were grown as controls.
To analyze production of taromycins and analogues, solid phase extraction of the culture supernatants was performed with Amberlite XAD-16 resin (SIGMA). For analytical purposes around 1 g of washed and equilibrated resin was added to 20 mL of supernatant followed by shaking for 30-60 min. Samples were then spun down and decanted. The resin was washed twice with water (15 mL), before elution with methanol (5 mL). The methanol extracts from the resin were used for LCMS analysis without additional concentration step.

The test system of data set [5] is Tar13 Tar14 Tar16. Put plainly: One-pot Tar13/Tar14/Tar16 conversion of L-Trp to L-4-Cl-Kyn. The data set is classed as biochemical, Saccharomonospora sp. CNQ-490. On the procedure:
Buffer: up to 100 μL (50 mM Tris, 500 mM NaCl (or KBr) 10% glycerol, pH 8.0)
(§2) Tar14 (added last): 2.5 μM
Incubate 45 min at 30° C., followed by addition of premixed:
Buffer: up to 50 μL (50 mM Tris, 500 mM NaCl (or KBr) 10% glycerol, pH 8.0)
The reactions were incubated at 30° C. overnight, after which the assays were quenched by addition of equal volume of HPLC grade methanol and frozen at −70° C. till further analysis by LCMS.

A short description of data set [6]: Deformylation of N-formyl-L-4-Cl-Kyn on purification/lyophilization. The data set is classed as physicochemical. Particulars: mildly acidic purification conditions / after lyophilization. On the procedure:
N-formyl-L-4-Cl-kynurenine (10): The Tar13 biochemical assay was scaled to 57.6 mL (six 96 well plates with 100 μL reaction mixture as described in section 8 in each well). After overnight incubation, the assays were pooled together, frozen on dry ice, and lyophilized. The dried sample was redissolved in a 4000 μL of water/methanol (1/1) mixture and subjected to purification by preparative HPLC using method 8. Organic solvent from combined fractions (checked by direct injection into the Bruker Ion Trap mass spectrometer) was removed by evaporation at reduced pressure and the aqueous sample was frozen following by lyophilization. Due to the presence of closely eluting impurities, further purification step using semi-preparative HPLC and method 6 was used. The target peak was collected manually. After removing organic solvent under reduced pressure and lyophilization, the desired product 10 (1.8 mg) was obtained.

Data set [7] deals with T1, Saccharomonospora sp. CNQ-490 Tar14 (flavin-dependent tryptophan halogenase), wild type, SEQ ID NO: 3 (expressed SEQ ID NO: 4); expressed with cleaved His tag SE (Saccharomonospora piscinae, UniProt W5VG40).
T1 construct: flavin reductase Tar15 and PtdH as helper enzymes
T1 sequence (W5VG40 1-534): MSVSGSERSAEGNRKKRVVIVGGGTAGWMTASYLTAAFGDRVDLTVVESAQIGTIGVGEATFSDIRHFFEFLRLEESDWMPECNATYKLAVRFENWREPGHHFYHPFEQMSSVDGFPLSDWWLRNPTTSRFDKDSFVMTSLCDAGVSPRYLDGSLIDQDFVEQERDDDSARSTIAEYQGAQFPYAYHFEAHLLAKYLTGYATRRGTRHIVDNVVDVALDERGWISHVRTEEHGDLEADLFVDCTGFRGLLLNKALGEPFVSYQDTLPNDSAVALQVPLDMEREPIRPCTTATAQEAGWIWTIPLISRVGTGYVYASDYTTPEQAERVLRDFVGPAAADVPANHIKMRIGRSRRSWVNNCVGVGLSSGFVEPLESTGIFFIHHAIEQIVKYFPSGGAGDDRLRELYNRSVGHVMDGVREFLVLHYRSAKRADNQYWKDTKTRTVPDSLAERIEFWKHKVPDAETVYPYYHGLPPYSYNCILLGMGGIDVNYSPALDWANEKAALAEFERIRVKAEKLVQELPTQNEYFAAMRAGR
Briefly: Kinetic characterization of Tar14-catalyzed chlorination of L-tryptophan. The data set is classed as biochemical. Particulars: Tar14, L-Trp chlorination, 30° C., pH 7.6.
From the text: To determine kinetic parameters for Tar14-catalyzed chlorination of L-tryptophan, phenol was first tested as an internal standard for quantification of the product (L-6-chlorotryptophan) formation. An HPLC method that gives separation of substrate/product/internal standard peaks (method 4) was developed (FIGS. 10A and 108). It was also verified that activity of Tar14 was not affected by the presence of phenol in the reaction mixture. Using commercial standard of L-6-chlorotryptophan and phenol mixed at known concentrations, a calibration curve was built (FIGS. 10A and 10B).
Tar14 reaction mixture of total volume 100 μL in 1.5 mL Eppendorf tube was composed of the following components:
Buffer (10 mM Tris, 10% glycerol, pH 7.6) up to 100 μL
as §2
The reactions were incubated at 30° C. for 5, 10, 25, 45, 60, 120, and 240 min, after which the assays were quenched by addition of equal volume of HPLC grade methanol and frozen at −70° C. till further analysis by HPLC. All assays were performed in triplicates for each substrate concentration and every time point. In parallel, for each time point and substrate concentration, assays with no added phenol and with no added enzyme were used as controls.
Product formation was quantitated by calculating the ratio of peak areas of product to internal standard and fitting that value to a calibration curve. […]

Data set [8] has as its system Streptomyces violaceusniger SPC6 Th-Hal (C6 tryptophan halogenase), SEQ ID NO: 38. Particulars: cited from earlier work.
In data set [9] the test system is Streptomyces toxytricini NRRL 15443 SttH (tryptophan halogenase), SEQ ID NO: 39. As to conditions: cited from earlier work.
Data set [10] has as its system Lechevalieria aerocolonigenes ATCC 39243 RebH (tryptophan halogenase), SEQ ID NO: 44. Particulars: cited from earlier work.
Data set [11] relates to Streptomyces rugosporus LL-42D005 PyrH (C5 tryptophan halogenase), SEQ ID NO: 36. As to conditions: cited from earlier work.
Data set [12] relates to Pseudomonas fluorescens PrnA (tryptophan halogenase), SEQ ID NO: 43. As to conditions: cited from earlier work.
Data set [13] deals with Kutzneria sp. 744 KtzR (tryptophan halogenase), SEQ ID NO: 40. As to conditions: cited from earlier work.

Take `N[C@@H](Cc1c[nH]c2ccccc12)C(=O)O` [Compound 4, L-tryptophan]: the “Enzyme assays, % conversion, Tar14, Br^−” value in [1] (KBr 100 mM, substrate 0.25 mM, Tar14 5 μM, 30° C., 4 h) came to 100%. For the same molecule, the “Enzyme assays, % conversion, Tar14, Cl^−” value in data set [1] (NaCl 100 mM, substrate 0.25 mM, Tar14 5 μM, 30° C., 4 h) stood at 100%. Also, the “Iodination by Tar14” value in data set [1] (incubated with iodide) is “No iodinated tryptophan products were detected”. Moreover, the “Conversion/activity as substrate for Tar13” value in data set [2] is given as “only trace activity”. Also, the “Enzyme assays, % conversion, Tar13” value in data set [2] (substrate 0.25 mM, Tar13 20 μM, overnight at 30° C.) amounted to 15%. Further, the “Enzyme assays, % conversion, Tar16” value in data set [3] amounted to 100%. Moreover, the “Feeding, % incorporation, A1 + A13 domain” value in [4] was below 5%. For the same molecule, the “Production of L-4-Cl-Kyn from L-Trp in one-pot reaction” value in [5] is on record as “below 1%”.
Regarding `N[C@@H](CC(=O)c1ccc(Cl)cc1NC=O)C(=O)O` [Compound 10, N-formyl-L-4-Cl-kynurenine], the “Stability: deformylation to L-4-Cl-Kyn (1)” value in data set [6] is “partial deformylation”.
One may read the kcat as the maximal rate divided by the concentration of active sites. What is called Km is the concentration of substrate that gives half-maximal velocity. In the case of `N[C@@H](Cc1c[nH]c2ccccc12)C(=O)O` [L-Trp, L-tryptophan], the kcat in data set [7] was 0.0067 s⁻¹ and 0.007 ± 0.00083 s⁻¹; in data set [8] (30° C.), 0.0717 ± 0.0083 s⁻¹; in [8] (45° C.) it was 0.085 ± 0.0067 s⁻¹; in data set [9], 0.0283 ± 0.0017 s⁻¹; in data set [10] it was 0.01 ± 0.0017 s⁻¹; in data set [11], 0.04 ± 0.0067 s⁻¹. Besides, the kcat is 0.0183 ± 0.0017 s⁻¹ in data set [12] and 0.0067 ± 0.0017 s⁻¹ in data set [13]. Besides, the Km in data set [8] (30° C.) was 12.2 ± 1.8 µM; in data set [8] (45° C.) it was 20.4 ± 1.3 µM; in data set [9], 25.3 ± 3.2 µM; in data set [10] it was 28.7 ± 1.3 µM; in [11] it was 15.2 ± 4.2 µM; in data set [12], 20.7 ± 0.1 µM. Further, the Km in data set [13] was 34.1 ± 2.1 µM.
